According to publication PMC3914206:

Columns and labels:
Assay type in all cases: binding
Details in all cases: Compound Concentration 10 µM
panel of 442 kinases [1] = molecular target: T1, panel of 442 kinases (Homo sapiens, UniProt P31152)
T1 construct: purchased KINOMEscan
Excerpt: (§1) We assessed the selectivity of members of this scaffold using the KINOMEscan methodology across a near comprehensive panel of 442 kinases [[18,27]].

panel of 442 kinases [2] = molecular target: T2, panel of 442 kinases (Homo sapiens, UniProt P00533, L861Q)
T2 construct: purchased KINOMEscan
Excerpt: as §1

panel of 442 kinases [3] = molecular target: T3, panel of 442 kinases (Homo sapiens, UniProt P49761)
T3 construct: purchased KINOMEscan
Excerpt: as §1

panel of 442 kinases [4] = molecular target: T4, panel of 442 kinases (Homo sapiens, UniProt P49336)
T4 construct: purchased KINOMEscan
Excerpt: as §1

T1 sequence (P31152 whole entry): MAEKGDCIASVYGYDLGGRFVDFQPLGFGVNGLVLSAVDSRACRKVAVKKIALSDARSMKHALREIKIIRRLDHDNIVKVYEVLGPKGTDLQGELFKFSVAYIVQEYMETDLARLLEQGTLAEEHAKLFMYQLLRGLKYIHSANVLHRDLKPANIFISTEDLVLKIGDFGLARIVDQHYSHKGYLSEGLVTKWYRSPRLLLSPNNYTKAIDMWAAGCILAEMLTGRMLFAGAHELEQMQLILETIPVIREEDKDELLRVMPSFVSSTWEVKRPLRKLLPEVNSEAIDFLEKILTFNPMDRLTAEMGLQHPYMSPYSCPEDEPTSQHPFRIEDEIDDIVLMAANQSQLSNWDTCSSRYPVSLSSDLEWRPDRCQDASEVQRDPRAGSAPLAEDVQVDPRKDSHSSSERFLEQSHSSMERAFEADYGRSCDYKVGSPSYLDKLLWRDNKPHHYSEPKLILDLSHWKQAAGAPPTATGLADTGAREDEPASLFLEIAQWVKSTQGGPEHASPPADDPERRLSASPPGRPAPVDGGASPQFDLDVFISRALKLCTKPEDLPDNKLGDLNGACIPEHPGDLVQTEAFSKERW
T3 sequence (P49761 whole entry): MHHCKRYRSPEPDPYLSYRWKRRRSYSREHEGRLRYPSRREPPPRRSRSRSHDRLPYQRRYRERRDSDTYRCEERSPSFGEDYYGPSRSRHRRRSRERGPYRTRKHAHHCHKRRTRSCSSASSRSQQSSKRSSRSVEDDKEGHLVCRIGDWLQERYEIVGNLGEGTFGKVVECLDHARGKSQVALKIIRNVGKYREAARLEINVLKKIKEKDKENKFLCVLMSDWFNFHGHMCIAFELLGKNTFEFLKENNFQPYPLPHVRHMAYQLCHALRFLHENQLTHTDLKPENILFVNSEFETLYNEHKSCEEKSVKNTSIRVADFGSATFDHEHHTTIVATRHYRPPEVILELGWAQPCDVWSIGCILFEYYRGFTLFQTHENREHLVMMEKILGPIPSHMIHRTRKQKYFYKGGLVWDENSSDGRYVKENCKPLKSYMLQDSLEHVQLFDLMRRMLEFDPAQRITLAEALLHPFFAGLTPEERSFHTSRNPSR
T4 sequence (P49336 whole entry): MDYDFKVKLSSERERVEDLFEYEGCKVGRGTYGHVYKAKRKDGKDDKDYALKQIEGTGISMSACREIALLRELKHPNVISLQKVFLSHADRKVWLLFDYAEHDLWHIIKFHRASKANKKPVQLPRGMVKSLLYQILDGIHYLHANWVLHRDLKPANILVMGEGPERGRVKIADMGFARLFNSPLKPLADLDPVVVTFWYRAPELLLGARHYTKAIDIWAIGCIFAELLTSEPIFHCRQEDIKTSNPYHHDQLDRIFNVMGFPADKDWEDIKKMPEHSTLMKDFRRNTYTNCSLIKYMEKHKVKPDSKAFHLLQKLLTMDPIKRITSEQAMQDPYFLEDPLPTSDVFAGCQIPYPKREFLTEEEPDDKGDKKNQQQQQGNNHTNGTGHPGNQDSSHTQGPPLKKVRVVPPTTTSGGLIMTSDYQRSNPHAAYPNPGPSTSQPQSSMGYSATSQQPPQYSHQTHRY
T2 sequence (P00533 25-1210 L861Q): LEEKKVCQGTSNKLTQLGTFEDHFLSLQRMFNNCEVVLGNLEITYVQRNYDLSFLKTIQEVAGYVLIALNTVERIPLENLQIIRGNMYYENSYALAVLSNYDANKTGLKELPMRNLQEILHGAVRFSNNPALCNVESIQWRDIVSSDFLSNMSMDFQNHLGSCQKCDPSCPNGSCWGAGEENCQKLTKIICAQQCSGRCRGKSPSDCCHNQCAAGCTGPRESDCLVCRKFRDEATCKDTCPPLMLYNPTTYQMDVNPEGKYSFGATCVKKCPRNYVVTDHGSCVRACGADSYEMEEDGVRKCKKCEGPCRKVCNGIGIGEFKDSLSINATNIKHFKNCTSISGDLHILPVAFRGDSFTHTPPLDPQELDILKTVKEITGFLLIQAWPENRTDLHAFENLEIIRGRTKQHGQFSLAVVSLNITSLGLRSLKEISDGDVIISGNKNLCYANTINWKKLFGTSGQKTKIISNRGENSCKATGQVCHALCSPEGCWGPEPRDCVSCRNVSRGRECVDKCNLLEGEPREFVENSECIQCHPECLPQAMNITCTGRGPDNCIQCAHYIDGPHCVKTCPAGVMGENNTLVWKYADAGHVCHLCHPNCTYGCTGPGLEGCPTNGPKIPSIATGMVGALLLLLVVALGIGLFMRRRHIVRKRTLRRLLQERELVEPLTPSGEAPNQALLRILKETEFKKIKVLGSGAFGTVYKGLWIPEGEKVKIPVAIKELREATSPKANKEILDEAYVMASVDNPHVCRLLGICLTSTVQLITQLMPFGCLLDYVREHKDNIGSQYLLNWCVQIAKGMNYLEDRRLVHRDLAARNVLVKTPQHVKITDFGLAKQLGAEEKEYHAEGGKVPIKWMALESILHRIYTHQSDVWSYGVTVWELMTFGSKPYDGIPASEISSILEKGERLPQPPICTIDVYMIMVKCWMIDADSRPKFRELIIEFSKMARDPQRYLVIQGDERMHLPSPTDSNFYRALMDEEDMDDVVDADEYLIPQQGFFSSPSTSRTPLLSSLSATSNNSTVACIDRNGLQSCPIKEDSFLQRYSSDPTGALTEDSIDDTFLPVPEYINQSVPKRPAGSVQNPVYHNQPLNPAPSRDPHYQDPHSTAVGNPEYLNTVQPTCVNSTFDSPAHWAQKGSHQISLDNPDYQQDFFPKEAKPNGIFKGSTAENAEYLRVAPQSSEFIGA

| Compound | KINOMEscan: ERK4 (panel of 442 kinases [1]) | KINOMEscan: EGFR(L861Q) (panel of 442 kinases [2]) | KINOMEscan: CLK3 (panel of 442 kinases [3]) | KINOMEscan: CDK8 (panel of 442 kinases [4]) |
| --- | --- | --- | --- | --- |
| COc1cc(C(=O)N2CCC(N3CCN(C)CC3)CC2)ccc1Nc1ncc2c(n1)N(C)c1ccccc1C(=O)N2C [15 (LRRK2-IN-1)] | 100 | 100 | 95 | 100 |
| COc1cc(C(=O)N2CCC(N3CCN(C)CC3)CC2)ccc1Nc1ncc2c(n1)N1CCc3cccc(c31)C(=O)N2C [Compound 24] | – | 82 | 80 | 91 |
| COc1cc(C(=O)N2CCC(N3CCN(C)CC3)CC2)ccc1Nc1ncc2c(n1)N(C1CCCC1)c1ccccc1C(=O)N2C [Compound 25, 11-cyclopentyl-2-((2-methoxy-4-(4-(4-methylpiperazin-1-yl)piperidine-1-carbonyl)phenyl)amino)-5-methyl-5H-benzo[e]pyrimido[5,4-b][1,4]diazepin-6(11H)-one] | 100 | 89 | 100 | 100 |
| CCOc1cc(C(=O)N2CCC(N3CCN(C)CC3)CC2)ccc1Nc1ncc2c(n1)N(C1CCCC1)c1ccccc1C(=O)N2C [Compound 26] | 100 | 100 | 100 | 95 |
